The text below walks through data of patent publication US7312333B2, “Retroviral protease inhibitors” (Pharmacia Corporation, priority 1992, dated 2007).

Read-outs that look alike come from different tables or passages of the source.

In one data set the test system is CEM cells. The data set can be described thus: CEM cell assay: intrinsic toxicity of test compound in uninfected cells (MTT). The format is cell-based. The protocol:
(§1) The effectiveness of the compounds tested in Part A was also determined in a CEM cell assay. The HIV inhibition assay method of acutely infected cells is an automated tetrazolium based colorimetric assay essentially that reported by Pauwles et al, J. Virol. Methods 20, 309-321 (1988). Assays were performed in 96-well tissue culture plates. CEM cells, a CD4^+ cell line, were grown in RPMI-1640 medium (Gibco) supplemented with a 10% fetal-calf serum and were then treated with polybrene (2 μg/mL). An 80 μL volume of medium containing 1×10^4 cells was dispensed into each well of the tissue culture plate. To each well was added a 100 μL volume of test compound dissolved in tissue culture medium (or medium without test compound as a control) to achieve the desired final concentration and the cells were incubated at 37° C. For 1 hour. A frozen culture of HIV-1 was diluted in culture medium to a concentration of 5×10^4 TCID50 per mL (TCID50=the dose of virus that infects 50% of cells in tissue culture), and a 20 μL volume of the virus sample (containing 1000 TCID50 of virus) was added to wells containing test compound and to wells containing only medium (infected control cells). Several wells received culture medium without virus (uninfected control cells). Likewise, the intrinsic toxicity of the test compound was determined by adding medium without virus to several wells containing test compound. In summary, the tissue culture plates contained the following experiments:
(§2) In experiments 2 and 4, the final concentrations of test compounds were 1, 10, 100 and 500 μg/mL. Either azidothymidine (AZT) or dideoxyinosine (ddI) was included as a positive drug control. […] DMSO was added to all control wells at an appropriate concentration.
(§3) Following the addition of virus, cells were incubated at 37° C. in a humidified, 5% CO2 atmosphere for 7 days. Test compounds could be added on days 0, 2 and 5 if desired. On day 7, post-infection, the cells in each well were resuspended and a 100 μL sample of each cell suspension was removed for assay. A 20 μL volume of a 5 mg/mL solution of 3-(4,5-dimethylthiazol-2-yl)-2,5-diphenyltetrazolium bromide (MTT) was added to each 100 μL cell suspension, and the cells were incubated for 4 hours at […] in a 5% CO2 environment. […] To each sample was added 100 μL of 10% sodium dodecylsulfate in 0.01 N HCl to lyse the cells, and samples were incubated overnight. The absorbance at 590 nm was determined for each sample using a Molecular Devices microplate reader. Absorbance values for each set of wells is compared to assess viral control infection, uninfected control cell response as well as test compound by cytotoxicity and antiviral efficacy.
(§4) The calculated EC^50 (effective concentration 50%, i.e., the concentration at which the inhibitor compound reduces cytopathicity by 50%) and TD^50 (toxic dose 50%, i.e., the concentration at which the inhibitor compound reduces cellular viability by 50%) values for these compounds are also shown in Table 1.

In a further data set the target is T1, HIV protease (Human immunodeficiency virus type 1 group M subtype B, UniProt P04585).
T1 construct: HIV protease is diluted in the assay buffer to a final enzyme concentration of 12.3 nanomolar, based on a molecular weight of 10,780
In words: HIV protease enzyme assay (fluorogenic substrate 2-aminobenzoyl-Ile-Nle-Phe(p-NO2)-Gln-ArgNH2). Format: biochemical. Particulars: for inhibition at 10 µM: at a concentration of 10 micromolar. The protocol: The compounds of the present invention are effective HIV protease inhibitors. […] The calculated IC50 (inhibiting concentration 50%, i.e., the concentration at which the inhibitor compound reduces enzyme activity by 50%) values are shown in Table 1. The enzyme method is described below. The substrate is 2-aminobenzoyl-Ile-Nle-Phe(p-NO2)-Gln-ArgNH2. The positive control is MVT-101 (Miller, M. et al, Science, 246, 1149 (1989)] The assay conditions are as follows:
Assay buffer: 20 mM sodium phosphate, pH 6.4
The above described substrate is dissolved in DMSO, then diluted 10 fold in assay buffer. Final substrate concentration in the assay is 80 μM.
HIV protease is diluted in the assay buffer to a final enzyme concentration of 12.3 nanomolar, based on a molecular weight of 10,780.
The final concentration of DMSO is 14% and the final concentration of glycerol is 18%. The test compound is dissolved in DMSO and diluted in DMSO to 10× the test concentration; 10 μL of the enzyme preparation is added, the materials mixed and then the mixture is incubated at ambient temperature for 15 minutes. The enzyme reaction is initiated by the addition of 40 μL of substrate. The increase in fluorescence is monitored at 4 time points (0, 8, 16 and 24 minutes) at ambient temperature. Each assay is carried out in duplicate wells.

Another data set deals with HIV-1. In words: CEM cell assay: HIV inhibition in acutely infected cells (MTT colorimetric). The format is cell-based. Particulars: HIV-1 infected CEM cells, 7 days, concentration reducing cytopathicity by 50%, read-out: Antiviral Activity in Cell Culture (EC50). On the procedure: as §1, §2, §3, §4
For orientation: Protection from cytopathic effect is a common read-out in antiviral testing.

A short description of data set [1]: CEM cell assay: intrinsic toxicity of test compound in uninfected cells (MTT). The conditions noted are these: human, uninfected CEM cells (CD4+ cell line); CEM cells without virus, 7 days, concentration reducing cellular viability by 50% (TD50). The format is cell-based. The protocol:
as §1, §2, §3, §4

[2] abbreviates: substrate 80 μM, HIV protease 12.3 nanomolar, pH 6.4, ambient temperature, read-out: Enzyme Inhibition (IC50).
The mark [3] stands for this setting: Human immunodeficiency virus 1, CCRF-CEM, 168 h.

As usually defined, the IC50 is the point on the concentration scale where inhibition reaches its midpoint. The EC50 is the concentration that produces a half-maximal response. In the case of “3-Isoquinolinecarboxamide, N-(1,1-dimethylethyl)decahydro-2-[2-hydroxy-3-[[2-methyl-3-(methylsulfonyl)-1-oxopropyl]amino]-4-phenylbutyl]-, [3S-[2[2S*,3R*(R*)], 3α,4aβ,8aβ]] [Example 6]”, the IC50 in the data set with CEM cells (CEM cells without virus, 7 days, concentration reducing cellular viability by 50% (TD50), read-out: Cell Toxicity (IC50)) was determined as 2000 nM; on HIV protease (setting [2]), 2 nM. Besides, the concentration for a half-maximal effect (EC50) in the data set on HIV-1 is 52 nM.

As usually defined, the inhibition is the change of the read-out against control, counted positive when it falls. A higher inhibition goes with strong suppression. Compound `COc1ccc(COC(=O)NC[C@@H](C)C(=O)N[C@@H](Cc2ccccc2)[C@H](O)CN2C[C@H]3CCCC[C@H]3C[C@H]2C(=O)NC(C)(C)C)cc1` (relative stereo) [Example 4, carbamic acid, [3-[[3-[3-[[(1,1-dimethylethyl)-amino]carbonyl]octahydro-2(1H)-isoquinolinyl]-2-hydroxy-1-(phenyl-methyl)propyl]amino]-2-methyl-3-oxopropyl]-,(4-methoxyphenyl)methylester,[3S-[2[1R*(S*),2S*], 3α,4aβ,8aβ]]] registered an inhibition at 10 µM at HIV protease of 3 to 100%.

Turning to `C[C@H](CS(C)(=O)=O)C(=O)N[C@@H](Cc1ccccc1)[C@H](O)CN1C[C@H]2CCCC[C@H]2C[C@H]1C(=O)NC(C)(C)C` (relative stereo) [Example 6, 3-Isoquinolinecarboxamide, N-(1,1-dimethylethyl)decahydro-2-[2-hydroxy-3-[[2-methyl-3-(methylsulfonyl)-1-oxopropyl]amino]-4-phenylbutyl]-, [3S-[2[2S*,3R*(R*)], 3α,4aβ,8aβ]]], the inhibition at 10 µM on HIV protease fell in the range of 3 to 100%.

As for `CC(C)(C)NC(=O)[C@@H]1C[C@@H]2CCCC[C@@H]2CN1C[C@@H](O)[C@H](Cc1ccccc1)NC(=O)C[C@H](NC(=O)c1ccc2ccccc2n1)C(N)=O` (relative stereo) [Example 10, butanediamide, N^4-[3-[3-[[(1,1-dimethylethyl)-amino]carbonyl]octahydro-2(1H)-isoquinolinyl]-2-hydroxy-1-(phenyl-methyl)propyl]-2-[(2-quinolinylcarbonyl)amino]-, [3S[2[1R*(R*),2S*], 3α,4aβ,8aβ]]], the IC50 at 7 days in data set [1] came out at 5000 nM. On HIV protease, this compound came in with an IC50 of 9 nM and an inhibition at 10 µM of 3 to 100%. The EC50 in the data set with HIV-1 (setting [3]) amounted to 37 nM.

The compound `C[C@@H](C(=O)N[C@@H](Cc1ccccc1)[C@H](O)CN1C[C@H]2CCCC[C@H]2C[C@H]1C(=O)NC(C)(C)C)C(C)(C)C(N)=O` (relative stereo) [Example 12, Butanamide, 4-[[3-[3-[[(1,1-dimethylethyl)-amino]carbonyl]octahydro-2 (1H)-isoquinolinyl]-2-hydroxy-1-(phenylmethyl)propyl]amino]-2,2,3-trimethyl-4-oxo-, [3S-[2[1R*(S*),2S*], 3α, 4aβ, 8 aβ]]] registered an IC50 at 7 days in data set [1] of 59000 nM. Further, the IC50 at HIV protease (setting [2]) amounted to 9 nM. For the same compound, the EC50 in the data set with HIV-1 (setting [3]) came to 98 nM.

Turning to `C[C@@H](C(=O)N[C@@H](Cc1ccccc1)[C@H](O)CN1C[C@H]2CCCC[C@H]2C[C@H]1C(=O)NC(C)(C)C)C(C)(C)C(=O)O` (relative stereo) [Example 12C, butanoic acid, 4-[[3-[3-[[(1,1-dimethylethyl)amino]carbonyl]octahydro-2(1H)-isoquinolinyl]-2-hydroxy-1-(phenylmethyl)propyl]amino]-2,2,3-trimethyl-4-oxo-, [3S-[2[1R*(S*),2S*], 3α,4aβ, 8aβ]]-], half-maximal inhibition in data set [1] (IC50 at 7 days) required 50000 nM. Also, on HIV protease (setting [2]), the half-maximal inhibitory concentration (IC50) was 23 nM. In addition, the EC50 in the data set with HIV-1 (setting [3]) is 184 nM.

On to `COc1ccc(COC(=O)NCC(C)C(=O)NC(Cc2ccccc2)C(O)CN2CC3CCCCC3CC2C(=O)NC(C)(C)C)cc1` (stereo not drawn) [Example 4, carbamic acid, [3-[[3-[3-[[(1,1-dimethylethyl)-amino]carbonyl]octahydro-2(1H)-isoquinolinyl]-2-hydroxy-1-(phenyl-methyl)propyl]amino]-2-methyl-3-oxopropyl]-,(4-methoxyphenyl)methylester,[3S-[2[1R*(S*),2S*], 3α,4aβ,8aβ]]], for which the figures for the IC50 with CEM cells and at HIV protease (setting [2]) were 58000 nM and 7 nM, respectively. Further, in the data set on HIV-1, the EC50 worked out at 42 nM.

Take `C[C@@H](C(=O)N[C@@H](Cc1ccccc1)[C@H](O)CN1C[C@H]2CCCC[C@H]2C[C@H]1C(=O)NC(C)(C)C)C(C)(C)C(N)=O` [Example 12, Butanamide, 4-[[3-[3-[[(1,1-dimethylethyl)-amino]carbonyl]octahydro-2 (1H)-isoquinolinyl]-2-hydroxy-1-(phenylmethyl)propyl]amino]-2,2,3-trimethyl-4-oxo-, [3S-[2[1R*(S*),2S*], 3α, 4aβ, 8 aβ]]]: the inhibition at 10 µM against HIV protease is 3 to 100%.

As for `C[C@@H](C(=O)N[C@@H](Cc1ccccc1)[C@H](O)CN1C[C@H]2CCCC[C@H]2C[C@H]1C(=O)NC(C)(C)C)C(C)(C)C(=O)O` [Example 12C, butanoic acid, 4-[[3-[3-[[(1,1-dimethylethyl)amino]carbonyl]octahydro-2(1H)-isoquinolinyl]-2-hydroxy-1-(phenylmethyl)propyl]amino]-2,2,3-trimethyl-4-oxo-, [3S-[2[1R*(S*),2S*], 3α,4aβ, 8aβ]]-], at HIV protease, the inhibition at 10 µM lay within 3 to 100%.
